Measured values: patent US6060451A, “Thrombin inhibitors based on the amino acid sequence of hirudin” (The National Research Council of Canada, priority 1995, dated 2000)
Where “and” joins values, the source holds several entries; their conditions need not be identical. Identical values can stand only once. Each block holds one substance with its values, some of them ahead of it. Non-standard residues stand in square brackets, D forms with d.

Experiments:
[1] = test system: carotid artery thrombosis; assay: Ferric chloride injury-induced thrombosis model in carotid artery; settings: rat carotid artery, FeCl3 injury; for Dose to double patency time: control patency time 19 ± 1 min
Description: Species: Rat, male, Sprague-Dawley.
Animals were laid on a heating pad which was maintained at 37° C. The carotid artery was approached through a midline cervical incision. Carefully blunt dissection was used to expose and isolate the vessel from the carotid sheath. […] The vessel temperature was monitored for 60 minutes after application of FeCl3. […] The site of the experiment was covered with aluminum foil in order to protect the FeCl3 from degradation by light.
All the samples were kept on ice and centrifuged as soon as possible at 2000 Rpm for 10 min., 4° C. The plasma was analyzed in duplicate for activated partial thromboplastin time on a haemostasis analyzer (STAGO ST4™).
From a group of four animals, two arteries were stored at -80° C. for further analysis. The others were observed under a light microscope at 40× (Leica™) for quantification of the occlusion (complete, partial, no occlusion).
In some studies, the animal was receiving the compound by i.v. infusion instead of a bolus. In this case, the jugulars and femoral veins were cannulated with Sylastic tubing (I.D. 0.025IN). This left jugular was used for blood sampling and the right one for the infusion line. The compound was infused 30 minutes before injury and then for an other 30 minutes post-injury. Blood samples were taken at time 0, 30 and 60 minutes for APTT test and thrombin test (1 ml of blood/90 ul of citrated buffer).

[2] = test system: venous thrombosis in vena cava; assay: Venous thrombosis model (balloon catheter induced-injury and stasis in vena cava); type: in vivo, rat; settings: rats; for Minimum Bolus dose needed to achieve patency: i.v. bolus
Description: Rats ranging in weight from 350 g-450 g were anaesthetized with urethane [50%] at 1500 mg/kg IP. The abdomen and neck were shaved and prepared for surgery.
An incision was made from the base of the sternum to approximately 10-20 mm up from the penile sheath. Another incision was made across the end of the incision (90 degree) to create a flap to be hemostat open. […] Two sutures were loosely looped around the vein(1) and the vein and artery(2), just posterior to the renal veins and arteries. All other branches coming off dorsally from the vena cava were ligated as well as any other veins which may branch of this vein (approximately 4-6 depending on rat). Two more sutures were looped around the vein(1) and artery and vein(2) at the bifurcation of the femoral vein and artery. The right jugular vein was isolated, for later injection of compound.
An incision in the upper interior leg was made and the femoral vein and artery were exposed. The femoral vein was isolated and two sutures were looped around it. One suture was ligated distally, and the other one was pulled tight (proximal) to stop blood flow through the vessel. A very small incision was made into the vein and a 2F fogarty catheter was inserted. The catheter was fed up the femoral vein to the upper sutures (near the renal veins). At this point, inject the compound via the isolated right jugular vein and wait 1 minute. At 1 minute inflate the fogarty catheter with enough saline to distend the vena cava, but still allowing the catheter to be pulled back down to the point of femoral bifurcation without bursting the vessel. This procedure was repeated 3 times. After the third passage, the catheter was removed and as quickly as possible, the femoral incision was ligated with the proximal suture and the suture which was looped around only the vena cava was ligated to stop return flow and allow thrombus growth and the timer was set for 30 minutes.
At this point, the intestines may be placed back in the body cavity, and moistened with saline if any drying has occurred, and skin kept closed with hemostat. […]

[3] = test system: activated partial thromboplastin time; assay: Increase in APTT, bolus plus infusion model; type: in vivo, rat; parameters: Infusion Dose needed to cause 2-4 fold increase in APTT: unit not given here; settings: intravenous bolus followed by infusion
thrombin [4] = molecular target: T1, thrombin (Homo sapiens, UniProt P00734); assay: Antithrombin activity in vitro, Ki (Table III); type: biochemical; settings: first test where two are given; means for 3-5 observations
Description: The reactions were initiated by addition of the substrate dissolved in 0.1 M Tris-HCl buffer, pH 7.8 to a preincubated solution of enzyme (0.4 or 0.04 nM) and variable concentrations of inhibitor dissolved in the same buffer. Initial velocities were recorded and Ki values were determined graphically by weighted linear regression of Dixon plots in the case of competitive inhibition, or by the method of Baici (Baici, 1981) for hyperbolic inhibition. Fluorogenic assays were conducted using the same conditions and instrument as above operating in the fluorescence mode in the Ratio (λex=383 nm, λem=455 nm). Fluorescence intensities were calibrated with 7-amino-4-methyl coumarin solution of known concentration. The specificity of the synthetic peptides of the present invention for human α-thrombin may also be determined by comparing their relative inhibitory activities towards both human α-thrombin and bovine α-thrombin and trypsin by comparing Ki values obtained in the amidolytic assay of thrombin activity.

thrombin [5] = molecular target: T1, thrombin; assay: Thrombin time in buffer containing fibrinogen (dTT); type: biochemical; settings: read-out: IC50 dTT (concentration required to double thrombin time)
Excerpt: *Concentration of compound required to double thrombin time in buffer

platelets = assay: Thrombin-induced platelet aggregation; type: cell-based
Description: The inhibitory activity of some of the peptides of the present invention toward thrombin is reflected by their ability to inhibit thrombin-mediatedplatelet aggregation as shown in FIG. 2. Platelet rich plasma containing variable concentrations of P79 is treated with thrombin. Platelet aggregation, reflected by increased light transmittance is measured on a Bio Data PAP-4 aggregometer.

human plasma clotting = assay: Human plasma clotting time; type: biochemical; settings: read-out: IC50 plasma clotting time (concentration required to inhibit human plasma clotting time by 50%)
Description: Thus, for the determination of prothrombin time, 50 μl of reconstituted citrated normal human plasma (Sigma, St-Louis, Mo.) is mixed with 50 μl of thromboplastin solution at 37° C. in a 400 μl cuvette. […] The clotting time is recorded following recalcification with 100 μl of 25 mM CaCl2. The clotting time in the absence of inhibitor was between 19-22 sec.
The same procedure is adopted for the determination of activated partial thromboplastin time except that reconstituted plasma is activated for 3 minutes with cephalin (Sigma, St-Louis, Mo.).
**Concentration of compound required to inhibit human plasma clotting tim

[6] = test system: platelet deposition on arterial media; assay: Pig angioplasty model, ex vivo platelet deposition on arterial media; type: in vivo
Description: The study investigates the dose range required to inhibit platelet deposition on arterial media and aggregation ex vivo in the pig using a bolus and infusion regimen of the compounds of the invention. The study was carried out according to Lam, J. Y. T. et al., Circulation 84:2, August 1991, 814-820. A brief outline of the protocol follows.
Normal 3-4 month old pigs were used. In all pigs, autologous platelets were labeled with 300-400 μCi ^111 In-tropolone 18-24 hours before angioplasty. The pigs were sedated with 300 mg i.m. ketamine. After inhalation of the ether, the pigs were intubated, mechanically ventilated with room air by a respirator and maintained anesthetized with 0.5% halothane. Immediately after catheter insertion, a single bolus of heparin was administered to animals receiving platelet-inhibitor therapy and their matching controls corresponding to a dose less than 3.1 units/kg/min. Heparin was not administered to animals receiving hirudin or their matching controls.
An 8F balloon dilation catheter was advanced under fluoroscopic control through a right femoral cut down into the left and right common carotid arterial segment between the fifth and fourth vertebrae. Five inflations were performed, 30 seconds each at 6 atm with 60 seconds between inflations. The angiographic lumen diameter before dilation ranged from 5 to 6 mm during dilation, the diameter of the inflated balloon within the artery was not more than 10% greater than the original arterial lumen. […]
The platelet deposition on each dilated artery was calculated from the platelet counts and ^111 In activity on the arterial wall and in the blood obtained. The percentage of radioactivity bound to platelets was determined and the number of platelets per counts per minute was calculated from known blood platelet counts. The number of platelets deposited on the arterial segments per square centimeter was calculated by dividing the arterial segment counts per minute by both the number of platelets per counts per minute and the arterial surface area.

Substance: heparin [reference compound]
Dose needed to cause a doubling in patency time [1]: 200 U/kg
Dose needed to achieve patency [2]: 10-15 U
Bolus needed to achieve the same increase in APTT [3]: 25 U
Infusion needed to achieve the same increase in APTT [3]: 0.5 U/kg/min

Substance: Ac(D-Phe)-Pro-Arg-(CH2)4 (CO)--[NH--CH2 --CH=CH--CH2 --(CO)]2 -DFEPIPL-OH (Ac-[dF]PR[(CH2)4CO][NHCH2CH:CHCH2CO][NHCH2CH:CHCH2CO]DFEPIPL-OH; numbers in words are those of the source; also: Arg carbonyl bonded to (CH2)4 (non-amide backbone link)) [P184]
Ki (thrombin [4]): 1.5 nM
IC50 (thrombin [5]): 10.5 nM
IC50 (platelets): 6 nM
Dose to double patency time [1]: 1 to 2 mg/kg
Minimum Bolus dose needed to achieve patency [2]: 0.5 to 2 mg/kg
Bolus Dose needed to cause 2-4 fold increase in APTT [3]: 1 mg/kg
Infusion Dose needed to cause 2-4 fold increase in APTT [3]: 125
IC50 (human plasma clotting): 52 nM
Decrease of platelet deposition on arterial media relative to baseline control, mean ([6]; four animals): 61.2%
Platelet deposition after drug infusion, X±SEM ([6]; i.v. bolus 0.2 mg/kg then infusion 0.2 mg/kg/hr, four animals, paired T P=0.0001): 39.8±12.7 % of control
Platelet deposition after drug infusion, single animals ([6]; i.v. bolus 0.2 mg/kg then infusion 0.2 mg/kg/hr, mean of three determinations per animal, animals 1-4, listed as BCH-1710): 31.9 % of control and 23.7 % of control and 3.7 % of control and 84.3 % of control

Ki (thrombin [4]): 0.95 nM
IC50 (thrombin [5]): 4.9 nM
IC50 (platelets): 10 nM
IC50 (human plasma clotting): 30 nM
Substance: (D-Phe)-Pro-Arg-(CH2)4 (CO)--[NH(CH2)4 (CO)]2 -DF-(4-thiahomoGlu)-PIPL-TFA salt [BCH-2758]
Dose to double patency time [1]: 4 mg/kg

Substance: Hirulog: comparator thrombin inhibitor, BCH number 1724
Minimum Bolus dose needed to achieve patency [2]: 0.05 to 0.125 mg/kg
